Measurements published in US10011573B2, “Human androgen receptor DNA-binding domain (DBD) compounds as therapeutics and methods for their use” (The University of British Columbia, priority 2014, dated 2018).
Like-named read-outs stand apart in the source and are kept apart here.

Columns and labels:
PSA = experiment: Prostate-specific antigen (PSA) assay, secreted PSA from the eGFP assay plates; assay type: cell-based, human
Protocol: 3. Prostate-specific antigen (PSA) assay: The evaluation of PSA levels secreted into the media was performed in parallel to the eGFP assay using the same plates. After cells were incubated for 3 days, 150 μl of the media was taken from each well, and added to 150 μl of PBS.

androgen receptor (AR) = biological target: T1, androgen receptor (AR) (Homo sapiens, UniProt P10275, T878A); experiment: eGFP cellular AR transcription assay (LNCaP eGFP cells, LN-ARR2PB-eGFP); conditions: for inhibition at 3 µM: LNCaP, read-out: % Inhibition (3 μM)
T1 sequence (P10275 1-920 T878A): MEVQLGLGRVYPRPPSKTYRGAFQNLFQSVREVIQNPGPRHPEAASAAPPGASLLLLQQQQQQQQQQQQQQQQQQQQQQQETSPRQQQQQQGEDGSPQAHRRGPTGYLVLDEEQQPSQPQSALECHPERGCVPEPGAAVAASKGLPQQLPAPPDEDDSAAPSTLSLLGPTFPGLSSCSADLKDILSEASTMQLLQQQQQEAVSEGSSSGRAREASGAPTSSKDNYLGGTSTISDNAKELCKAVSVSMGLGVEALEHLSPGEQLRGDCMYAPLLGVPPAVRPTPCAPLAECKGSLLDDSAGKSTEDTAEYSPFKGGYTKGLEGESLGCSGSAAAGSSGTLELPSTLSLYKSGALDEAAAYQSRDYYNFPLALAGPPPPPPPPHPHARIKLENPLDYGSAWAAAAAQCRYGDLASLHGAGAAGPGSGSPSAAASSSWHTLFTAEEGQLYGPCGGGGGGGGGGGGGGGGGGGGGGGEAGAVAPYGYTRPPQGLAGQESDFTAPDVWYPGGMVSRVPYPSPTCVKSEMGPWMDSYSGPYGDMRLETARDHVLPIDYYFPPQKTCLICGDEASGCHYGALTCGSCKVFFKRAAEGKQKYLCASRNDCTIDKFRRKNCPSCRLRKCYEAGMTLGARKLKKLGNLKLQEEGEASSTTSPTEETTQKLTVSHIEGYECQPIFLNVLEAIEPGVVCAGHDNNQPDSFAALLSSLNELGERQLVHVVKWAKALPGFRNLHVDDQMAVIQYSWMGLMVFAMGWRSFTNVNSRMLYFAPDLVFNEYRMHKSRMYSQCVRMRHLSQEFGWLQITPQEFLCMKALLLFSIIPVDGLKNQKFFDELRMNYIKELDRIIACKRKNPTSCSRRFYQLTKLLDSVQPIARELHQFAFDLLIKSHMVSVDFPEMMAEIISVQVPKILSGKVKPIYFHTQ

[1] = eGFP IC50 (μM), LNCaP eGFP cells

SMILES | inhibition at 3 µM (androgen receptor (AR)) [%] | IC50 (androgen receptor (AR); eGFP IC50 (μM), Series 1) [µM] | % Inhibition (3 μM) (androgen receptor (AR)) [%] | further results
Fc1ccc(-c2csc(-c3ccncc3)n2)cc1 [Compound 14315] | 83.3 | 1.19 |  | IC50 (PSA; Homo sapiens, Series 1): 632 nM
c1cncc(-c2csc(-c3c[nH]c4ccccc34)n2)c1 [Compound 14442] | 86.3 | 5.39 |  | IC50 (PSA; Homo sapiens, Series 1): 3050 nM
Cc1ncn(-c2csc(N3CCOCC3)n2)c1C [Compound 14399] |  |  |  | IC50 (PSA; Series 1): 2420 nM; IC50 (androgen receptor (AR); read-out: eGFP IC50): 3.65 µM
Cc1ccc2sc(N3CCOCC3)nc2c1C [Compound 14332] | 91.7 |  |  | IC50 (PSA; Homo sapiens, secreted PSA): 58 nM; IC50 (androgen receptor (AR); [1]): 0.068 µM
O=C(O)c1sc(N2CCOCC2)nc1-c1ccccc1 [Compound 14506] |  |  |  | IC50 (PSA; Series 1): 4500 nM; IC50 (androgen receptor (AR); read-out: eGFP IC50): 7 µM
CC(=O)Nc1cccc(NC(=O)c2ccc(C)c(-n3cccc3)c2)c1 [Compound 14010] |  |  |  | IC50 (PSA; Homo sapiens, secreted PSA): 19300 nM; IC50 (androgen receptor (AR); [1]): 32.5 µM
c1ccc2c(-c3csc(-c4c[nH]c5ccccc45)n3)c[nH]c2c1 [Compound 14471] |  | 1.02 |  | IC50 (PSA; Homo sapiens, Series 1): 1410 nM
Clc1ncn(-c2csc(N3CCOCC3)n2)c1Cl [Compound 14402, 4-(4-(4,5-dichloro-1H-imidazol-1-yl)thiazol-2-yl)morpholine] |  | 0.66 |  | IC50 (PSA; Homo sapiens, Series 1): 570 nM
Nc1ccccc1-c1csc(N2CCOCC2)n1 [Compound 14273] | 73.4 | 1.41 |  | IC50 (PSA; Homo sapiens, Series 1): 2030 nM
c1ccc2c(-c3nc(-c4ccncc4)cs3)c[nH]c2c1 [Compound 14150] | 133 | 1.44 |  | IC50 (PSA; Homo sapiens, Series 1): 1290 nM
Oc1ccc2nc(N3CCOCC3)sc2c1 [Compound 14378] | 57.5 |  |  | IC50 (PSA; Homo sapiens, secreted PSA): 8080 nM; IC50 (androgen receptor (AR); [1]): 7.41 µM
Brc1cn(-c2csc(N3CCOCC3)n2)cn1 [Compound 14447, 4-(4-(4-bromo-1H-imidazol-1-yl)thiazol-2-yl)morpholine] |  | 2.1 |  | IC50 (PSA; Homo sapiens, Series 1): 1740 nM
Cc1ccc(C)c(-c2csc(N3CCOCC3)n2)c1 [Compound 14293] |  | 0.62 |  | IC50 (PSA; Homo sapiens, Series 1): 520 nM
Fc1ccc(-c2csc(N3CCOCC3)n2)cc1 [Compound 14255] | 44.9 | 0.66 |  | IC50 (PSA; Homo sapiens, Series 1): 410 nM
CCc1sc(N2CCOCC2)nc1-c1ccccc1 [Compound 14285] |  |  | 52.34 | IC50 (PSA; Series 1): 8430 nM; IC50 (androgen receptor (AR); read-out: eGFP IC50): 5.85 µM
COc1ccccc1-c1csc(N2CCOCC2)n1 [Compound 14257] | 118 | 0.22 |  | IC50 (PSA; Homo sapiens, Series 1): 830 nM
Clc1ccc(-c2csc(N3CCOCC3)n2)cc1Cl [Compound 14266] |  |  | 82.19 | IC50 (PSA; Series 1): 2960 nM; IC50 (androgen receptor (AR); read-out: eGFP IC50): 3.31 µM
Clc1c(Br)ncn1-c1csc(N2CCOCC2)n1 [Compound 14450, 4-(4-(4-bromo-5-chloro-1H-imidazol-1-yl)thiazol-2-yl)morpholine] |  | 1.3 |  | IC50 (PSA; Homo sapiens, Series 1): 1280 nM
Clc1ncn(-c2csc(N3CCOCC3)n2)c1I [Compound 14468, 4-(4-(4-chloro-5-iodo-1H-imidazol-1-yl)thiazol-2-yl)morpholine] |  | 2.44 |  | IC50 (PSA; Homo sapiens, Series 1): 4020 nM
COc1cc(F)ccc1-c1csc(N2CCOCC2)n1 [Compound 14367] | 103 | 0.3 |  | IC50 (PSA; Homo sapiens, Series 1): 230 nM
N#Cc1ccc(-c2nc3ccccc3s2)cc1 [Compound 14489] | 82.5 |  |  | IC50 (PSA; Homo sapiens, secreted PSA): 1060 nM; IC50 (androgen receptor (AR); [1]): 1.79 µM
Oc1cccc(-c2ccc3ccccc3n2)c1 [Compound 14300] |  |  |  | IC50 (PSA; Homo sapiens, secreted PSA): 1040 nM; IC50 (androgen receptor (AR); [1]): 0.23 µM
Nc1ccccc1-c1nc(-c2cccnc2)cs1 [Compound 14463] |  | 2.3 |  | IC50 (PSA; Homo sapiens, Series 1): 2120 nM
Clc1ccc(-c2csc(N3CCOCC3)n2)c(Cl)c1 [Compound 14263] |  |  |  | IC50 (PSA; Series 1): 1320 nM; IC50 (androgen receptor (AR); read-out: eGFP IC50): 1.66 µM
FC(F)(F)c1cccc(-c2csc(-c3ccncc3)n2)c1 [Compound 14421] | 107 | 4.61 |  | 
Cc1ccc(-c2csc(N3CCOCC3)n2)c(C)c1 [Compound 14283] |  |  | 38.89 | 
Nc1cccc(-c2ccc3ccccc3n2)c1 [Compound 14321] | 66.5 |  |  | 
Cc1sc(N2CCOCC2)nc1-c1ccc(F)cc1 [Compound 14341] |  |  | 43.7 | 

SMILES | inhibition at 3 µM (androgen receptor (AR)) [%] | IC50 (androgen receptor (AR); eGFP IC50 (μM), Series 1) [µM] | % Inhibition (3 μM) (androgen receptor (AR)) [%] | further results
CS(=O)(=O)Nc1ccc(-c2csc(N3CCOCC3)n2)cc1 [Compound 14276] |  |  | 25.98 | 
Brc1ccc(-c2csc(N3CCOCC3)n2)cc1 [Compound 14251] |  |  | 7.96 | 
c1ccc2c(-c3csc(N4CCOCC4)n3)cccc2c1 [Compound 14230] | 99.5 | 1.61 |  | 
Cc1cccn1-c1csc(N2CCOCC2)n1 [Compound 14410] |  | 28.4 |  | 
O=[N+]([O-])c1ccc(-c2csc(N3CCOCC3)n2)cc1 [Compound 14254] | 3.37 | 15.8 |  | 
c1ccc2cc(-n3ccnc3)ccc2c1 [Compound 14018] |  |  |  | IC50 (androgen receptor (AR); [1]): 13.9 µM
CS(=O)(=O)c1ccc(-c2csc(N3CCOCC3)n2)cc1 [Compound 14277] |  |  | 12.71 | 
Clc1ccccc1-c1csc(N2CCOCC2)n1 [Compound 14437] |  |  | 45.04 | 
Clc1cnccc1-c1csc(N2CCOCC2)n1 [Compound 14446] |  |  | 24 | 
CCc1ccc(-c2csc(N3CCOCC3)n2)cc1 [Compound 14259] |  |  | 26.26 | 
CCSc1ccc(-c2cc(C)nc(N)n2)cc1 [Compound 14055] |  |  |  | IC50 (androgen receptor (AR); [1]): 10 µM
c1ccc2c(-n3ccnc3)cccc2c1 [Compound 14163] |  |  |  | IC50 (androgen receptor (AR); [1]): 24 µM
CN1CCN(c2nc(-c3ccccc3)cs2)CC1 [Compound 14338] |  |  | 19.33 | 
COc1ccccc1-c1nc(N2CCOCC2)sc1C [Compound 14363] |  |  | 29.03 | 
c1ccc(-c2csc(N3CCCC3)n2)cc1 [Compound 14351] |  |  | 38.4 | 
COc1ccc(-c2csc(N3CCOCC3)n2)c(OC)c1 [Compound 14268] |  |  | 37.55 | 
Oc1ccc(-c2ccc3ccccc3n2)cc1 [Compound 14440] | 8.65 |  |  | IC50 (androgen receptor (AR); [1]): 9.48 µM
CNc1cc(F)c(OC)c(-c2csc(N3CCOCC3)n2)c1 [Compound 14465] |  | 3.06 |  | 
OCc1sc(N2CCOCC2)nc1-c1ccccc1 [Compound 14274] |  |  | 5.04 | 
C/C(=N\NC(N)=S)c1ccc2c3c(cccc13)CC2 [Compound 14206] | 109 |  |  | IC50 (androgen receptor (AR); [1]): 3.4 µM
c1ccc2oc(-c3csc(N4CCOCC4)n3)cc2c1 [Compound 14136] |  |  | 40.98 | 
c1ccc2nc(N3CCCCC3)ccc2c1 [Compound 14495] | 89.4 |  |  | IC50 (androgen receptor (AR); [1]): 0.6 µM
CC(=O)c1ccc(-c2ccccc2)s1 [Compound 14422] | 131 | 2.26 |  | 
O=[N+]([O-])c1ccc2nc(N3CCOCC3)ccc2c1 [Compound 14454] | 0 |  |  | 
CC1CN(c2nc(-c3ccc([N+](=O)[O-])cc3)cs2)C(C)CO1 (centres unmarked) [Compound 14247] |  |  | 3.73 | 
COc1cccc(-c2csc(-c3ccccn3)n2)c1 [Compound 14343] |  |  | 16.12 | 
COc1c(F)cc(O)cc1-c1csc(N2CCOCC2)n1 [Compound 14467] |  | 3.7 |  | 
